Data reported in publication PMC9399069, “Imaging PARP with [^18F]rucaparib in pancreatic cancer models” (European Journal of Nuclear Medicine and Molecular Imaging, 2022).
“And” between values parts separate entries of the source, which are not always exact repeats. Equal entries are not always repeated. Blank lines part the entries; values can stand above or below the compound they belong to.

Legend:
[1] = system: AsPC1 cells; experiment: In vitro uptake and binding selectivity of [18F]rucaparib in AsPC1 cells; format: cell-based, human
Method: (§1) AsPC1 (1 × 10^5 cells/well) and PSN1 cells (7.5 × 10^4 cells/well) were seeded separately in 24-well plates (in 300 μL growth medium) and allowed to adhere for at least 20 h. […] To assess [^18F]rucaparib-binding selectivity, unlabelled PARP inhibitors, IMPDH2 or ALDH2 inhibitor, were added (100 μM, in 270 μL growth medium) for 45 min at 37 °C before addition of [^18F]rucaparib (156 kBq, 6.8 GBq/μmol; [^TotalF]rucaparib final concentration: 100 nM), and the cells were incubated at 37 °C for a further 45 min. Cell culture medium was removed, and cells were washed with PBS. Cells were lysed using RIPA buffer for 15 min at room temperature, and the amount of ^18F in the cell lysates was measured using an automated gamma counter (PerkinElmer), normalising for the number of cells.
(§2) Cells were lysed and the amount of ^18F in the cell lysates was measured as above.

[2] = system: PSN1 cells; experiment: In vitro uptake and binding selectivity of [18F]rucaparib in PSN1 cells; format: cell-based, human
Method: as §1, §2

[3] = system: AsPC1 cells; experiment: Cell retention of [18F]rucaparib and [18F]olaparib in AsPC1 cells; format: cell-based, human
Method: (§3) AsPC1 (1 × 10^5 cells/well) and PSN1 cells (7.5 × 10^4 cells/well) were exposed to [^18F]rucaparib (100 kBq, 4.8 GBq/μmol; [^TotalF]rucaparib final concentration: 258 nM) or [^18F]olaparib (400 kBq, 2.8 GBq/μmol: [^TotalF]olaparib final concentration: 242 nM) in 24-well plates at 37 °C for 30 min. Cell culture medium was removed, and cells were washed with PBS, followed by the addition of fresh medium (300 μL). Cells were then further incubated at 37 °C. Cell culture medium was removed, and cells were washed with PBS at different times (0–3 h). Cells were lysed using RIPA buffer for 15 min at room temperature, and the amount of ^18F in the cell lysates was measured as above.

[4] = system: PSN1 cells; experiment: Cell retention of [18F]rucaparib and [18F]olaparib in PSN1 cells; format: cell-based, human
Method: as §3

[5] = system: PSN1 xenografts; experiment: Dynamic PET/CT imaging of [18F]rucaparib in PSN1 tumour-bearing mice; format: in vivo, Balb/c nu/nu mice
Method: Female Balb/c nu/nu (OlaHsd-Foxn1^nu) mice, aged 4–6 weeks, were purchased from Envigo (UK). Animals were housed in IVC cages, up to 6 per cage, in an artificial day–night cycle facility. Food and water were provided ad libitum. PSN1 cells were harvested using trypsin, washed twice with PBS and reconstituted in PBS:Matrigel® Matrix High Concentration (1:1). Cell suspensions (PSN1: 2 × 10^6 cells/ 100 μL) were injected subcutaneously in the lower right flank. […] Animal was anesthetised by 4% isoflurane gas (0.5 L/min O2) and maintained at 2.5% at 37 °C throughout the duration of image acquisition. PET images were reconstructed using U-SPECT-Rec3.22 software (MILabs, Utrecht, The Netherlands), applying a pixel-based algorithm, ordered subset expectation maximisation (OSEM) with 6 subsets, 4 iterations and 0.8 mm voxel size for fluorine-18 (energy window settings 477.9–584.1 keV). Reconstructed PET and CT images were viewed and analysed using PMOD v.3.37 (PMOD Technologies, Zurich, Switzerland).

[6] = system: PSN1 xenografts; experiment: Ex vivo biodistribution of [18F]rucaparib in PSN1 tumour-bearing mice; design: species or system Balb/c nu/nu mice; settings: for Ex vivo biodistribution, Blood / Ex vivo biodistribution, Bone / Ex vivo biodistribution, Fat / Ex vivo biodistribution, Heart / Ex vivo biodistribution, Kidney / Ex vivo biodistribution, Large intestine / Ex vivo biodistribution, Lung / Ex vivo biodistribution, Muscle / Ex vivo biodistribution, Pancreas / Ex vivo biodistribution, Small intestine / Ex vivo biodistribution, Tumour: i.v.; for Tumour uptake / Tumour-to-blood (T/B) ratio: PSN1 xenografts; for Tumour uptake: mean ± SD
Method: Female Balb/c nu/nu (OlaHsd-Foxn1^nu) mice, aged 4–6 weeks, were purchased from Envigo (UK). Animals were housed in IVC cages, up to 6 per cage, in an artificial day–night cycle facility. Food and water were provided ad libitum.
PSN1 cells were harvested using trypsin, washed twice with PBS and reconstituted in PBS:Matrigel® Matrix High Concentration (1:1). Cell suspensions (PSN1: 2 × 10^6 cells/ 100 μL) were injected subcutaneously in the lower right flank.
Animals were administered [^18F]rucaparib (0.87–11.38 MBq in 100 μL of PBS, Am = 1.5–30.9 GBq/μmol) by intravenous injection via the lateral tail vein. To evaluate the selectivity of tumour uptake, an excess of unlabelled rucaparib or olaparib (0.5 mg) was co-administered as a blocking agent in some animals. Dynamic PET images (1 h) were acquired using a MILabs VECTor^4 camera, equipped with an ultra-high resolution rat/mouse collimator (1.8 mm), followed by a cone-beam CT scan (55 kV, 0.19 mA) for anatomical reference and attenuation correction. Animal was anesthetised by 4% isoflurane gas (0.5 L/min O2) and maintained at 2.5% at 37 °C throughout the duration of image acquisition. PET images were reconstructed using U-SPECT-Rec3.22 software (MILabs, Utrecht, The Netherlands), applying a pixel-based algorithm, ordered subset expectation maximisation (OSEM) with 6 subsets, 4 iterations and 0.8 mm voxel size for fluorine-18 (energy window settings 477.9–584.1 keV). Reconstructed PET and CT images were viewed and analysed using PMOD v.3.37 (PMOD Technologies, Zurich, Switzerland).
Either 1 h or 2 h after radiolabelled compound injection, animals were euthanised. Selected organs, tissues and blood were removed, and the percentage of the injected dose per gram of tissue (%ID/g) was determined, using a HIDEX automated gamma counter.

[7] = system: AsPC1 cells; experiment: Protein expression by flow cytometry after PARP inhibitors or DNA-damaging reagents, AsPC1 cells; format: cell-based, human; settings: 10 μM, 3 h, flow cytometry
Method: (§4) Relative expression of PARP1, 2 and 3, ALDH2 and IMPDH2 was determined by flow cytometry. Cells (1 × 10^6 cells/well) were seeded in 96-well plates in growth medium, washed with FACS buffer (PBS, 2% FBS, 1 mM EDTA, 0.1% NaN3) and centrifuged at 500×g for 5 min. Immunostaining was performed using the Foxp3/transcription factor staining buffer set (eBioscience^TM, USA). Intracellular staining was conducted in permeabilisation buffer for 30 min at 4 °C in the dark using the following antibodies: AF488-conjugated anti-PARP-1 (1:100; sc-80070), AF594-conjugated anti-PARP-2 (1:100; sc-393310), anti-PARP-3 (1:100; sc-390771) or anti-PARP-tankyrase-1/2 (1:100; sc-365897) from Santa Cruz Biotechnology Inc. (USA), AF488-conjugated anti-IMPDH2 (1:500; ab-200770) from Abcam plc. (UK) and AF488-conjugated anti-ALDH2 (1:100, ABIN6817568) from Antibodies-online GmbH (UK). Fixable viability dye ef780 (1:4000; eBioscience^TM; 65-0865-14) was used for live and dead cells discrimination. Fixation of immunostained cells was performed for 15 min at room temperature. Flow cytometry was conducted on the CytoFLEX benchtop flow cytometer (Beckman Coulter, USA), with appropriate lasers and filters, positive and negative controls. Data were analysed using FlowJo^TM (Tree Star Inc., BD Biosciences, USA).
(§5) AsPC1 (1 × 10^5 cells/well) and PSN1 cells (7.5 × 10^4 cells/well) were exposed to methyl methanesulfonate (MMS) or temozolomide (TMZ) (100 μM, in a total of 270 μL growth medium) for 3 h at 37 °C. Additionally, [^18F]rucaparib (500 kBq, 3.6 GBq/μmol; [^TotalF]rucaparib final concentration: 301 nM) or [^18F]olaparib (400 kBq, 8.5 GBq/μmol; [^TotalF]olaparib final concentration: 300 nM) was added, and the cells were incubated at 37 °C for 30 min. Cell culture medium was removed, and cells were washed with PBS. For cell retention, fresh medium (300 μL) was added to the cells. Cells were then further incubated at 37°C for 3 h. Cell culture medium was removed, and the amount of ^18F in the cell lysates was measured as above. Protein expression of the cells after DNA-damaging treatments (or PARP inhibitors 10 μM) was performed using flow cytometry as above.

[8] = system: PSN1 cells; experiment: Protein expression by flow cytometry after PARP inhibitors or DNA-damaging reagents, PSN1 cells; format: cell-based, human; settings: 10 μM, 3 h, flow cytometry
Method: as §4, §5

[9] = PSN1 tumour-bearing mice, i.v., n=3
[10] = PSN1 tumour-bearing mice, i.v., n=3, biphasic
[11] = 1 h post-injection, individual animals (n=3)
[12] = 2 h post-injection, individual animals (n=6)

Elimination pathways ([5]; PSN1 tumour-bearing mice, dynamic imaging and biodistribution): hepatobiliary and renal
Half-life for liver elimination ([5]; PSN1 tumour-bearing mice, i.v.): 31 ± 19 min
Weighted blood half-life ([5]; PSN1 tumour-bearing mice, i.v., 8.9 μg or 27.5 nmol/kg): 4.3 ± 0.62 min
Blood clearance, fraction of fast phase [5, 9]: 54 ± 10%
Blood clearance, fraction of slow phase [5, 9]: 46 ± 10%
Blood clearance, fast half-life [5, 10]: 1.7 ± 0.44 min
Blood clearance, slow half-life [5, 10]: 16 ± 10 min
Tumour-to-muscle (T/M) ratio from PET/CT images ([5]; PSN1 xenografts, 50 min post-injection): 2.3 ± 1.1
Time of tumour uptake (VOI analysis) ([5]; PSN1 xenografts, dynamic PET): ≤ 10 min
Time of uptake in kidney and bladder ([5]; dynamic PET, indicates fast renal clearance): ≤ 5 min
Ex vivo biodistribution, Blood [6, 11]: 3.51 %ID/g and 3.67 %ID/g and 3.59 %ID/g
Ex vivo biodistribution, Bone [6, 11]: 4.90 %ID/g and 6.79 %ID/g and 5.26 %ID/g
Ex vivo biodistribution, Fat [6, 11]: 6.53 %ID/g and 4.98 %ID/g and 6.82 %ID/g
Ex vivo biodistribution, Muscle [6, 11]: 2.63 %ID/g and 4.25 %ID/g and 3.13 %ID/g
Ex vivo biodistribution, Small intestine [6, 11]: 33.79 %ID/g and 46.24 %ID/g
Ex vivo biodistribution, Tumour [6, 11]: 5.25 %ID/g and 6.05 %ID/g and 5.16 %ID/g
Tumour uptake ([6]; 1 h after i.v. administration): 5.5 ± 0.5 %ID/g and 5.49 ± 0.49 %ID/g
Tumour-to-blood (T/B) ratio ([6]; 1 h post-administration): 1.53 ± 0.11
Tumour-to-blood (T/B) ratio ([6]; 2 h post-administration): 4.33 ± 2.1
Tumour uptake ([6]; 2 h post-administration): 2.2 ± 0.34 %ID/g
Structure (SMILES): CNCc1ccc(-c2[nH]c3cc([18F])cc4c3c2CCNC4=O)cc1 [[^18F]rucaparib]
Cellular uptake (time) ([1]; [TotalF]rucaparib 258 nM, 37 °C, Fig. 1B): < 1 min
Cellular uptake (time) ([2]; PSN1 cells, [TotalF]rucaparib 258 nM, 37 °C, Fig. 1B): < 1 min
Cell association of [18F]rucaparib ([2]; PSN1 versus AsPC1 cells, 64 nM and 258 nM, 37 °C, 30 min): higher in PSN1 cells than in AsPC1 cells
Uptake and retention compared with [TotalF]olaparib [3]: 100 fold
Uptake and retention compared with [TotalF]olaparib [4]: 100 fold
Ex vivo biodistribution, Heart [6, 11]: 13.27 %ID/g and 16.24 %ID/g and 17.47 %ID/g
Ex vivo biodistribution, Kidney [6, 11]: 17.24 %ID/g and 30.17 %ID/g and 36.00 %ID/g
Ex vivo biodistribution, Large intestine [6, 11]: 12.50 %ID/g and 16.33 %ID/g and 14.08 %ID/g
Ex vivo biodistribution, Lung [6, 11]: 17.76 %ID/g and 25.71 %ID/g and 27.51 %ID/g
Ex vivo biodistribution, Pancreas [6, 11]: 19.47 %ID/g and 23.54 %ID/g and 23.22 %ID/g
Ex vivo biodistribution, Blood [6, 12]: 0.92 %ID/g and 0.49 %ID/g and 0.48 %ID/g and 1.57 %ID/g and 0.51 %ID/g and 0.44 %ID/g
Ex vivo biodistribution, Bone [6, 12]: 3.49 %ID/g and 2.71 %ID/g and 2.38 %ID/g and 3.10 %ID/g and 2.18 %ID/g and 2.26 %ID/g
Ex vivo biodistribution, Fat [6, 12]: 1.32 %ID/g and 0.74 %ID/g and 0.84 %ID/g and 1.78 %ID/g and 1.03 %ID/g and 0.86 %ID/g
Ex vivo biodistribution, Heart [6, 12]: 2.44 %ID/g and 2.15 %ID/g and 1.73 %ID/g (2×) and 1.61 %ID/g and 1.27 %ID/g
Ex vivo biodistribution, Kidney [6, 12]: 7.28 %ID/g and 6.56 %ID/g and 5.54 %ID/g and 7.41 %ID/g and 4.70 %ID/g and 4.13 %ID/g
Ex vivo biodistribution, Large intestine [6, 12]: 23.81 %ID/g and 19.26 %ID/g and 15.83 %ID/g and 25.44 %ID/g and 36.97 %ID/g and 43.06 %ID/g
Ex vivo biodistribution, Lung [6, 12]: 8.77 %ID/g and 6.24 %ID/g and 4.58 %ID/g and 9.27 %ID/g and 5.27 %ID/g
Ex vivo biodistribution, Muscle [6, 12]: 2.51 %ID/g and 1.58 %ID/g and 1.90 %ID/g and 2.77 %ID/g and 1.57 %ID/g (2×)
Ex vivo biodistribution, Pancreas [6, 12]: 13.99 %ID/g and 9.45 %ID/g and 9.78 %ID/g and 11.07 %ID/g and 9.35 %ID/g and 7.70 %ID/g
Ex vivo biodistribution, Small intestine [6, 12]: 16.44 %ID/g and 9.50 %ID/g and 19.42 %ID/g and 22.39 %ID/g and 10.51 %ID/g and 13.44 %ID/g
Ex vivo biodistribution, Tumour [6, 12]: 2.58 %ID/g and 2.10 %ID/g and 1.74 %ID/g and 2.60 %ID/g and 3.45 %ID/g and 2.99 %ID/g

Structure (SMILES): COc1c(C)c2c(c(O)c1C/C=C(\C)CCC(=O)OCCN1CCOCC1)C(=O)OC2 [mycophenolate mofetil, reference compound]
Blocking of [18F]rucaparib uptake ([1]; unlabelled inhibitor 100 μM for 45 min before [18F]rucaparib (100 nM), further 45 min): significantly reduce
Blocking of [18F]rucaparib uptake ([2]; PSN1 cells, unlabelled inhibitor 100 μM for 45 min before [18F]rucaparib (100 nM), further 45 min): significantly reduce

Structure (SMILES): Cn1ncnc1[C@H]1c2n[nH]c(=O)c3cc(F)cc(c23)N[C@@H]1c1ccc(F)cc1 [talazoparib]
PARP1 expression (MFI) after exposure of PARP inhibitors [7]: upregulated
PARP1 expression (MFI) after exposure of PARP inhibitors [8]: upregulated
